US20260151375A1, “CDK2 INHIBITORS AND METHODS OF USING THE SAME” (Cedilla Therapeutics, Inc., priority 2022, published 2026)
Where a name gives a salt, the structure may show the parent alone. Read-outs that look alike come from different tables or passages of the source.

Columns and labels:
[1] = test system: mouse models of polycystic kidney disease; settings: Bukanov et al., Nature 2006; cited from earlier work
[2] = target: T1, CDK2/Cyclin E1 (Homo sapiens, UniProt P24941); test: ADPGLO (CDK2/E1-37 C), ADP-Glo Luminescent Kinase Assay; assay type: biochemical; settings: 0.18 nM CDK2/Cyclin E1, 100 μM ATP, Histone H1, 37° C.
T1 construct: purchased 14-475
Protocol: Inhibition of CDK2/Cyclin E1 activity by the presence of small molecules was evaluated using ADP-Glo Luminescent Kinase Assay (Promega). Activated CDK2/Cyclin E1 was incubated with its substrate Histone H1 (SignalChem H10-54N) in the kinase reaction buffer (100 μM ATP, 50 mM HEPES pH 7.5, 10 mM MgCl2, 1 mM EDTA, 2 mM DTT, 0.01% Brij35, 0.5 mg/mL BSA). Luminescence was recorded with an Envision plate reader (PerkinElmer).
Dose titrations of inhibitors in 100% DMSO were combined with 0.36 nM CDK2/Cyclin E1 in reaction buffer. The mixtures were incubated for 60 minutes at 37° C. before the addition of ATP and Histone H1 substrate to initiate the kinase reaction. The final conditions were 0.18 nM CDK2/Cyclin E1, 100 μM ATP, and 1.5 μM Histone H1. The reactions were incubated at 37° C. for 90 minutes before being stopped with the addition of ADP-Glo reagent. This mixture was incubated at room temperature for 60 minutes before Kinase Detection Solution is added to generate luminescence. The stopped reactions were analyzed on an Envision plate reader. The conversion ratios were normalized to yield % activity, plotted against compound concentration, and fit to a four-parameter equation to determine the IC50 for each compound.

[3] = test system: Kuramochi cells; test: IncuCyte Kuramochi Assay (cell proliferation); assay type: cell-based; settings: Kuramochi cells labeled with mApple-H2B, cell count, read-out: IncuCyte - Kuramochi RB-WT: IC50
Method in brief: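 GI50 came from dose-response fits of cell-count fold change between 0 and 72 h, normalized to DMSO controls. Counts were fluorescent nuclei from live-cell images over a 10-point, ½ log series starting at 20 μM.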

[4] = target: T1, CDK2/Cyclin E1; test: Caliper Assay (LabChip EZ Reader mobility shift assay), inhibition of CDK2/Cyclin E1 activity; assay type: biochemical; settings: 2.5 nM CDK2/Cyclin E1(14-475), 100 μM ATP, 30 min preincubation; read-out: Caliper Assay (CDK2/CCNE1): IC50
Method in brief: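 Compounds were preincubated 30 min with CDK2/Cyclin E1(14-475), then run for 100 min with 2.5 nM enzyme, 100 μM ATP and 1.5 μM 5-FAM-QSPKKG peptide in HEPES pH 7.5 (final). Reactions were EDTA-stopped and substrate-to-product conversion read by mobility shift. IC50 came from a four-parameter fit.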

Structure (SMILES): CC[C@H](CO)Nc1nc(NCc2ccccc2)c2ncn(C(C)C)c2n1 [roscovitine]
- arrest of cystic kidney disease [1]: effective arrest of cystic kidney disease

Structure (SMILES): COc1cn[nH]c1C(=O)N1CC(c2nnc(C(F)(F)c3ccc(Cl)c(Cl)c3)o2)C2(C1)CN(C(=O)[C@H]1CC1(F)F)C2 (stereo partly drawn) [I-137, (8-(5-((3,4-dichlorophenyl)difluoromethyl)-1,3,4-oxadiazol-2-yl)-2-((R)-2,2-difluorocyclopropane-1-carbonyl)-2,6-diazaspiro[3.4]octan-6-yl)(4-methoxy-1H-pyrazol-5-yl)methanone]
- IC50 [2]: > 10 µM
- IC50 ([3]; 72 h): > 10 µM
- IC50 [4]: 1 to 10 µM

Structure (SMILES): CC(c1nc(C2CN(C(=O)c3cncs3)CC23CN(C(=O)[C@H]2CC2(C)C)C3)no1)n1ccc(C2CCCC2)n1 (single isomer, unassigned) [I-36 2nd]
- IC50 [2]: > 10 µM
- IC50 ([3]; 72 hours): > 10 µM
- IC50 [4]: 1 to 10 µM

Structure (SMILES): O=C(c1cnc(O)cn1)N1CC(c2nnc(C(F)(F)c3ccc(C4CCOCC4)cc3)o2)C2(C1)CN(C(=O)[C@H]1CC1(F)F)C2 (stereo partly drawn) [I-132, (8-(5-(difluoro(4-(tetrahydro-2H-pyran-4-yl)phenyl)methyl)-1,3,4-oxadiazol-2-yl)-2-((R)-2,2-difluorocyclopropane-1-carbonyl)-2,6-diazaspiro[3.4]octan-6-yl)(5-hydroxypyrazin-2-yl)methanone]
- IC50 [2]: > 10 µM
- IC50 ([3]; 72 h): > 10 µM
- IC50 [4]: 1 to 10 µM

Structure (SMILES): O=C(c1nccnc1O)N1CC(c2nnc(C(F)(F)c3ccc(Cl)c(Cl)c3)o2)C2(CN(CC3CCCO3)C2)C1 (stereo not shown) [I-135]
- IC50 [2]: > 100 µM
- IC50 ([3]; 72 h): > 10 µM
- IC50 [4]: > 100 µM

Structure (SMILES): CC(c1nc(C2CN(C(=O)c3cnc(O)cn3)CC23CN(C(=O)[C@H]2CC2(F)F)C3)no1)n1ccc(C2CCCC2)n1 (stereo partly drawn) [I-134, (8-(5-(1-(3-cyclopentyl-1H-pyrazol-1-yl)ethyl)-1,2,4-oxadiazol-3-yl)-2-((R)-2,2-difluorocyclopropane-1-carbonyl)-2,6-diazaspiro[3.4]octan-6-yl)(5-hydroxypyrazin-2-yl)methanone]
- IC50 [2]: 0.5 to 5 µM
- IC50 ([3]; 72 h): > 10 µM
- IC50 [4]: 0.1 to 1 µM

Structure (SMILES): CC(c1nc(C2CN(C(=O)c3cnn(Cc4ccc(C#N)cc4)c3)CC23CN(C(=O)[C@H]2CC2(C)C)C3)no1)n1ccc(C2CCCC2)n1 (stereo partly drawn) [I-133, 4-((4-(8-(5-(1-(3-cyclopentyl-1H-pyrazol-1-yl)ethyl)-1,2,4-oxadiazol-3-yl)-2-((S)-2,2-dimethylcyclopropane-1-carbonyl)-2,6-diazaspiro[3.4]octane-6-carbonyl)-1H-pyrazol-1-yl)methyl)benzonitrile]
- IC50 [2]: ≤ 0.5 µM
- IC50 ([3]; 72 h): 0.5 to 5 µM
- IC50 [4]: ≤ 0.01 µM

Structure (SMILES): CC1(C)C[C@@H]1C(=O)N1CC2(CN(C(=O)c3cnccn3)CC2c2nnc(C(F)(F)c3ccc(Cl)c(Cl)c3)o2)C1 (single isomer, unassigned) [I-45 2nd]
- IC50 [2]: > 10 µM
- IC50 ([3]; 72 hours): > 10 µM
- IC50 [4]: 0.1 to 1 µM

Structure (SMILES): CC(c1nc(C2CN(C(=O)c3cnn(Cc4ccc(C(=O)O)cc4)c3)CC23CN(C(=O)[C@H]2CC2(C)C)C3)no1)n1ccc(C2CCCC2)n1 (stereo partly shown) [I-127]
- IC50 [2]: 5 to 10 µM
- IC50 ([3]; 72 h): > 10 µM
- IC50 [4]: 0.1 to 1 µM

Structure (SMILES): O=C(c1ccn[nH]1)N1CC(c2nnc(C(F)(F)c3ccc(Cl)c(Cl)c3)o2)C2(CN(CC3CCCO3)C2)C1 (stereo not shown) [I-139, (8-(5-((3,4-dichlorophenyl)difluoromethyl)-1,3,4-oxadiazol-2-yl)-2-((tetrahydrofuran-2-yl)methyl)-2,6-diazaspiro[3.4]octan-6-yl)(1H-pyrazol-5-yl)methanone formate]
- IC50 [2]: > 100 µM
- IC50 ([3]; 72 h): > 10 µM
- IC50 [4]: > 100 µM

Structure (SMILES): CC(c1nc(C2CN(C(=O)c3nccnc3O)CC23CN(C(=O)[C@H]2CC2(F)F)C3)no1)n1ccc(C2CCCC2)n1 (stereo partly shown) [I-129]
- IC50 [2]: > 10 µM
- IC50 ([3]; 72 h): > 10 µM
- IC50 [4]: > 100 µM

Structure (SMILES): O=C(c1[nH]ncc1C(F)(F)F)N1CC(c2nnc(C(F)(F)c3ccc(Cl)c(Cl)c3)o2)C2(CN(CC3CCCO3)C2)C1 (stereo not shown) [I-136]
- IC50 [2]: > 100 µM
- IC50 ([3]; 72 h): > 10 µM
- IC50 [4]: > 100 µM

Structure (SMILES): CC1(C)C[C@@H]1C(=O)N1CC2(CN(C(=O)c3cnn(Cc4ccccc4)c3)C[C@H]2c2nnc(Cc3ccc(Cl)c(Cl)c3)o2)C1 [I-15, (1-benzyl-1H-pyrazol-4-yl)((S)-8-(5-(3,4-dichlorobenzyl)-1,3,4-oxadiazol-2-yl)-2-((S)-2,2-dimethylcyclopropane-1-carbonyl)-2,6-diazaspiro[3.4]octan-6-yl)methanone]
- IC50 [2]: 0.5 to 5 µM
- IC50 ([3]; 72 h): 5 to 10 µM
- IC50 [4]: 0.01 to 0.1 µM

Structure (SMILES): O=C(c1cnc(O)cn1)N1CC(c2nnc(C(F)(F)c3ccc(Cl)c(Cl)c3)o2)C2(CN(CC3CCCO3)C2)C1 (stereo not shown) [I-140]
- IC50 [2]: > 10 µM
- IC50 ([3]; 72 h): > 10 µM
- IC50 [4]: > 10 µM

Structure (SMILES): O=C(c1cn[nH]c1C(F)(F)F)N1CC(c2nnc(C(F)(F)c3ccc(Cl)c(Cl)c3)o2)C2(CN(CC3CCCO3)C2)C1 (stereo not shown) [I-141]
- IC50 [2]: > 10 µM
- IC50 ([3]; 72 h): > 10 µM
- IC50 [4]: > 100 µM
